# Values quoted from earlier work in US4134792A, “Specific binding assay with an enzyme modulator as a labeling substance” (Miles Laboratories, Inc., priority 1976, dated 1979).
# Where two headings read alike, the source gives them in different places.
# Assays:
# Parameters in all cases: key: inhibitory or negative effectors are indicated by (-); stimulatory or positive effectors are indicated by (+)
# [1] = tested on: homoserine dehydrogenase; settings: R. rubrum; cited from earlier work
# [2] = tested on: homoserine dehydrogenase; settings: E. coli; cited from earlier work
# [3] = tested on: threonine aspartokinase; settings: E. coli; cited from earlier work
# [4] = tested on: glycogen synthetase; settings: yeast and lamb muscle; cited from earlier work
# [5] = tested on: L-glutamine-D-fructose-6-phosphate transaminase; settings: rat liver; cited from earlier work
smiles,measurement,setting,value
C[C@@H](O)[C@H](N)C(=O)O [L-threonine],allosteric effector: inhibitory (-) or stimulatory (+),[1],-
same,allosteric effector: inhibitory (-) or stimulatory (+),[2],-
same,allosteric effector: inhibitory (-) or stimulatory (+),[3],-
O=P(O)(O)OC[C@H]1OC(O)[C@H](O)[C@@H](O)[C@@H]1O (some centres unmarked) [glucose-6-phosphate],allosteric effector: inhibitory (-) or stimulatory (+),[4],+
CC(=O)N[C@H]1[C@@H](OP(=O)(O)OP(=O)(O)OC[C@H]2O[C@@H](n3ccc(=O)[nH]c3=O)[C@H](O)[C@@H]2O)O[C@H](CO)[C@@H](O)[C@@H]1O [uridine diphosphate (UDP)-N-acetyl-glucosamine],allosteric effector: inhibitory (-) or stimulatory (+),[5],-
